Like-named read-outs stand apart in the source and are kept apart here.
Tests used:
[1] = in vitro; conditions: hamster, CC50 (reduction in cell viability, MTT)
[2] = test system: T7FFLuc control (T7 RNA polymerase driven firefly luciferase); test: cells; format: cell-based; conditions: BSR-T7, read-out: EC50 (T7FFLuc control)
[3] = test system: EBOV minigenome (WT NP); test: microbe, parasite or virus in culture; conditions: Zaire ebolavirus; for EC50: BSR-T7, read-out: EC50 (reduction in luciferase, EBOV minigenome)
[4] = test system: EBOV minigenome (WT NP); test: in vitro; conditions: hamster
[5] = test system: EBOV minigenome (WT NP); test: microbe, parasite or virus in culture; format: cell-based, Ebola virus (EBOV), Makona strain; conditions: Zaire ebolavirus, read-out: EC50 (reduction in luciferase, EBOV minigenome)
[6] = test system: Huh7-Lunet-T7 cells; conditions: human
[7] = test system: T7FFLuc control (T7 RNA polymerase driven firefly luciferase); test: cells; format: cell-based; conditions: read-out: EC50 (T7FFLuc control)
[8] = test system: Bunyamwera virus (BUNV) minigenome; test: microbe, parasite or virus in culture; format: cell-based; conditions: BSR-T7, read-out: EC50 (BUNV minigenome control)
[9] = in vitro; conditions: human, CC50 (reduction in cell viability, MTT)
[10] = test system: influenza NP; conditions: cited from earlier work

Structure (SMILES) | CC50 [1] | EC50 [2] | EC50 [3] | selectivity ratio [4] | EC50 [5] | CC50 [6] | EC50 [7] | EC90 ([3]; BSR-T7, read-out: EC90 (EBOV minigenome)) | inhibition at 4.8 µM ([3]; BSR-T7, read-out: inhibition of luciferase (time course)) | EC50 [8] | CC50 [9] | EC50 (influenza, NP aggregation) [10]
O=C(c1cccc(/C=C2\SC(=O)N(Cc3cccc(F)c3)C2=O)c1)N1CCN(c2ccccn2)CC1 [MCCB4-8] | 46.5 µM | > 100 µM | 11.2 µM | 4 |  |  |  |  |  |  |  | 
O=C(c1cccc(/C=C2\SC(=O)N(Cc3ccc(F)cc3)C2=O)c1)N1CCN(c2ccccn2)CC1 [MCCB4-12] | 64.8 µM | 49.5 µM | 8.8 µM | 6.5 |  |  |  |  |  |  |  | 
O=C(c1cccc(/C=C2\SC(=O)N(Cc3ccccc3)C2=O)c1)N1CCN(c2ccccn2)CC1 [MCCB4] | > 100 µM | > 100 µM | 4.8 µM |  | 1.5 µM | 43.2 µM | 30.8 µM | 49 µM | 50% | > 100 µM | 48.8 µM | 
Cc1onc(-c2ccccc2)c1C(=O)N1CCN(c2ccc([N+](=O)[O-])cc2Cl)CC1 [Nucleozin] |  |  |  |  |  |  |  |  |  |  |  | nM range

Reference: article PMC6371959 (Antiviral Research, 2018)
